Data from the NIST ThermoML archive (doi:10.1021/acs.jced.7b00766).
Numbers after ± are expanded uncertainties. Each block holds one compound with its values, some of them ahead of it.

Settings: Liquid, Ebulliometric method (Recirculating still)

vapor or sublimation pressure (385.75 K): 85 ± 1 kPa
Compound: CCCCO [butan-1-ol]

Compound: Nc1ccccc1 [aniline]
vapor or sublimation pressure (450.25 K): 85 ± 1 kPa

vapor or sublimation pressure (365.65 K): 85 ± 1 kPa
Compound: CCCCCCC [heptane]

vapor or sublimation pressure (333.15 K): 85 ± 1 kPa
Compound: CO [methanol]
